Source: the NIST ThermoML archive (doi:10.1016/j.jct.2013.05.051)

Experiment: xn = mol fraction of the nth substance listed
Conditions: Liquid, Vibrating tube method

CCCCCCCO [heptan-1-ol] + CCCCCCC
mass density [kg/m3]
Conditions | x1 = 0.1493 | x1 = 0.3215 | x1 = 0.5226 | x1 = 0.6698 | x1 = 0.8469 | x1 = 1
333.15 K, 140000 kPa | – | 779.8 | 804.5 | 823.2 | 851.4 | 864.3
353.15 K, 100 kPa | 654.4 | 676.1 | 705.8 | 728.5 | 762.3 | 778.1
353.15 K, 1000 kPa | 655.7 | 677.3 | 706.8 | 729.4 | 763.1 | 778.8
353.15 K, 5000 kPa | 661.2 | 682.2 | 711.3 | 733.6 | 766.7 | 782.3
353.15 K, 10000 kPa | 667.4 | 687.9 | 716.4 | 738.3 | 771 | 786.3
353.15 K, 15000 kPa | 673.1 | 693.2 | 721.3 | 742.9 | 775.2 | 790.2
353.15 K, 20000 kPa | 678.4 | 698.2 | 725.8 | 747.1 | 779 | 793.9
353.15 K, 25000 kPa | 683.2 | 702.8 | 730.1 | 751.1 | 782.7 | 797.3
353.15 K, 30000 kPa | 687.9 | 707.1 | 734.2 | 755 | 786.3 | 800.7
353.15 K, 35000 kPa | 692.2 | 711.1 | 738 | 758.6 | 789.6 | 804
353.15 K, 40000 kPa | 696.2 | 715 | 741.6 | 762 | 792.8 | 807.1
353.15 K, 45000 kPa | 700.2 | 718.7 | 745.1 | 765.4 | 795.9 | 810
353.15 K, 50000 kPa | 704 | 722.4 | 748.5 | 768.7 | 799 | 813
353.15 K, 55000 kPa | 707.5 | 725.7 | 751.7 | 771.8 | 801.9 | 815.8
353.15 K, 60000 kPa | 711 | 729 | 754.9 | 774.8 | 804.7 | 818.6
353.15 K, 65000 kPa | 714.3 | 732.2 | 757.9 | 777.7 | 807.5 | 821.2
353.15 K, 70000 kPa | 717.5 | 735.2 | 760.9 | 780.5 | 810.2 | 823.8
353.15 K, 80000 kPa | 723.5 | 741 | 766.4 | 785.9 | 815.2 | 828.7
353.15 K, 90000 kPa | 729.1 | 746.5 | 771.7 | 791.1 | 820.1 | 833.5
353.15 K, 100000 kPa | 734.4 | 751.6 | 776.7 | 795.9 | 824.8 | 837.9
353.15 K, 110000 kPa | 739.6 | 756.6 | 781.5 | 800.6 | 829.3 | 842.3
353.15 K, 120000 kPa | 744.3 | 761.2 | 786 | 804.9 | 833.4 | 846.4
353.15 K, 130000 kPa | 748.8 | 765.6 | 790.2 | 809 | 837.5 | 850.3
353.15 K, 140000 kPa | 753.2 | 769.9 | 794.6 | 813.2 | 841.4 | 854.3
373.15 K, 100 kPa | – | – | – | – | – | 761.9
373.15 K, 1000 kPa | 636.8 | 658.8 | 688.9 | 712.2 | 746.6 | 762.8
373.15 K, 5000 kPa | 643.2 | 664.6 | 694.1 | 716.9 | 750.7 | 766.6
373.15 K, 10000 kPa | 650.5 | 671.2 | 700 | 722.4 | 755.5 | 771.1
373.15 K, 15000 kPa | 656.9 | 677.2 | 705.5 | 727.5 | 760.2 | 775.5
373.15 K, 20000 kPa | 662.9 | 682.7 | 710.6 | 732.2 | 764.4 | 779.5
373.15 K, 25000 kPa | 668.4 | 687.9 | 715.4 | 736.7 | 768.6 | 783.4
373.15 K, 30000 kPa | 673.6 | 692.7 | 719.9 | 740.9 | 772.4 | 787.1
373.15 K, 35000 kPa | 678.4 | 697.2 | 724.1 | 744.9 | 776 | 790.6
373.15 K, 40000 kPa | 682.8 | 701.4 | 728.1 | 748.7 | 779.7 | 794
373.15 K, 45000 kPa | 687.2 | 705.6 | 732 | 752.4 | 783 | 797.2
373.15 K, 50000 kPa | 691.2 | 709.3 | 735.5 | 755.9 | 786.3 | 800.3
373.15 K, 55000 kPa | 695.1 | 713 | 739.1 | 759.2 | 789.4 | 803.4
373.15 K, 60000 kPa | 698.8 | 716.6 | 742.4 | 762.4 | 792.4 | 806.3
373.15 K, 65000 kPa | 702.3 | 720.1 | 745.7 | 765.5 | 795.5 | 809.2
373.15 K, 70000 kPa | 705.7 | 723.2 | 748.8 | 768.5 | 798.2 | 811.9
373.15 K, 80000 kPa | 712.2 | 729.5 | 754.8 | 774.4 | 803.7 | 817.2
373.15 K, 90000 kPa | 718.3 | 735.4 | 760.4 | 779.8 | 808.9 | 822.3
373.15 K, 100000 kPa | 723.8 | 740.9 | 765.7 | 784.9 | 813.8 | 827
373.15 K, 110000 kPa | 729.2 | 746.1 | 770.7 | 789.8 | 818.5 | 831.6
373.15 K, 120000 kPa | 734.3 | 751 | 775.5 | 794.4 | 822.9 | 835.9
373.15 K, 130000 kPa | 739.1 | 755.7 | 780.1 | 798.9 | 827.3 | 840.2
373.15 K, 140000 kPa | 743.7 | 760.2 | 784.5 | 803.1 | 831.4 | 844.1
393.15 K, 100 kPa | – | – | – | – | – | 744.9
393.15 K, 1000 kPa | 617.4 | 639.3 | 670.1 | 693.9 | 729.1 | 745.8
393.15 K, 5000 kPa | 625 | 646.2 | 676.1 | 699.4 | 733.9 | 750.2
393.15 K, 10000 kPa | 633.5 | 653.8 | 683 | 705.6 | 739.3 | 755.3
393.15 K, 15000 kPa | 640.9 | 660.7 | 689.2 | 711.4 | 744.5 | 760.1
393.15 K, 20000 kPa | 647.6 | 666.9 | 694.9 | 716.6 | 749.2 | 764.6
393.15 K, 25000 kPa | 653.8 | 672.7 | 700.2 | 721.6 | 753.7 | 768.8
393.15 K, 30000 kPa | 659.5 | 678 | 705.2 | 726.3 | 758 | 772.9
393.15 K, 35000 kPa | 664.8 | 683.1 | 709.8 | 730.6 | 762.1 | 776.8
393.15 K, 40000 kPa | 669.7 | 687.7 | 714.2 | 734.8 | 765.9 | 780.4
393.15 K, 45000 kPa | 674.3 | 692.1 | 718.3 | 738.8 | 769.6 | 783.9
393.15 K, 50000 kPa | 678.7 | 696.3 | 722.3 | 742.6 | 773.1 | 787.3
393.15 K, 55000 kPa | 683 | 700.4 | 726.2 | 746.3 | 776.6 | 790.7
393.15 K, 60000 kPa | 687 | 704.1 | 729.8 | 749.7 | 779.8 | 793.8
393.15 K, 65000 kPa | 690.7 | 707.8 | 733.2 | 753.1 | 782.9 | 796.8
393.15 K, 70000 kPa | 694.4 | 711.4 | 736.7 | 756.4 | 786.1 | 799.8
393.15 K, 80000 kPa | 701.3 | 718.1 | 743.1 | 762.5 | 791.9 | 805.5
393.15 K, 90000 kPa | 707.8 | 724.3 | 749.2 | 768.3 | 797.5 | 810.9
393.15 K, 100000 kPa | 713.7 | 730.1 | 754.7 | 773.8 | 802.6 | 815.9
393.15 K, 110000 kPa | 719.4 | 735.7 | 760.1 | 778.9 | 807.7 | 820.8
393.15 K, 120000 kPa | 724.6 | 740.8 | 765 | 783.8 | 812.3 | 825.3
393.15 K, 130000 kPa | 729.7 | 745.7 | 769.8 | 788.5 | 816.8 | 829.8
393.15 K, 140000 kPa | 734.6 | 750.5 | 774.5 | 793 | 821.3 | 834
